The subject of the first experiment is SH-SY5Y M-currents (KCNQ2, KCNQ3 and KCNQ5). Nature of the experiment: SH-SY5Y native cell line FLIPR assay (voltage-sensitive dye DiBAC). In kind it is cell-based, mouse neuroblastoma, rat glioma hybrid cell line. Conditions: FLIPR assay, SH-SY5Y native cell line; Table 1; read-out: SH-SY5Y EC50. The method in brief: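 Response is peak DiBAC fluorescence change, normalised to the maximum from a positive control agent, sampled every 30 s over 25 min. Before compound addition, SH-SY5Y cells differentiated with PGE1 plus isomethylbutylxanthine were dye-loaded for 1 h in EBSS with […] DiBAC.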
Consider `CC(C)(C)CC(=O)Nc1nc2ccc(F)cn2c1CC(C)(C)C` [Compound 15, N-(6-fluoro-3-neopentylimidazo[1,2-a]pyridin-2-yl)-3,3-dimethylbutanamide], for which the EC50 is 0.5 to 3 µM.

As to `CC1(CC(=O)Nc2nc3ccc(C(F)(F)F)cn3c2C2CCCCC2)CCCC1` [Compound 47, N-(3-cyclohexyl-6-(trifluoromethyl)imidazo[1,2-a]pyridin-2-yl)-2-(1-methylcyclopentyl)acetamide], the EC50 was < 0.5 µM.

`CC(C)CCc1c(NC(=O)C2CCCC2)nc2ccc(C(F)(F)F)cn12` [Compound 53, N-(3-isopentyl-6-(trifluoromethyl)imidazo[1,2-a]pyridin-2-yl)cyclopentanecarboxamide]: the EC50 was < 0.5 µM.

Turning to `CC(C)(C)Cc1c(NC(=O)Cc2ccc(OC(F)(F)F)cc2)nc2ccc(C(F)(F)F)cn12` [Compound 26, N-(3-neopentyl-6-(trifluoromethyl)imidazo[1,2-a]pyridin-2-yl)-2-(4-(trifluoromethoxy)phenyl)acetamide], the EC50 was < 0.5 µM.

On to `O=C(Cc1cc(F)cc(F)c1)Nc1nc2ccc(C(F)(F)F)cn2c1C1CC1` [Compound 80, N-(3-cyclopropyl-6-(trifluoromethyl)imidazo[1,2-a]pyridin-2-yl)-2-(3,5-difluorophenyl)acetamide], for which the EC50 is < 0.5 µM.

On to `CC(C)(C)Cc1c(NC(=O)Cc2ccc(F)cc2)nc2ccc(F)cn12` [Compound 17, N-(6-fluoro-3-neopentylimidazo[1,2-a]pyridin-2-yl)-2-(4-fluorophenyl) acetamide], for which the EC50 is < 0.5 µM.

Regarding `CC(=O)Nc1nc2ccc(C(F)(F)F)cn2c1CC(C)(C)C` [Compound 62, N-(3-neopentyl-6-(trifluoromethyl)imidazo[1,2-a]pyridin-2-yl)acetamide], the 50% effective concentration (EC50) lay within 3 to 10 µM.

On to `O=C(Cc1ccc(F)cc1)Nc1cn2c(C(F)(F)F)cccc2n1` [Compound 13, 2-(4-fluorophenyl)-N-(5-(trifluoromethyl)imidazo[1,2-a]pyridin-2-yl)acetamide], for which the EC50 was in the range of 3 to 10 µM.

As to `O=C(Cc1ccc(F)cc1)Nc1nc2ccc(C(F)(F)F)cn2c1C1CCCCC1` [Compound 41, N-(3-cyclohexyl-6-(trifluoromethyl)imidazo[1,2-a]pyridin-2-yl)-2-(4-fluorophenyl)acetamide], the EC50 is < 0.5 µM.

For `CC(CC(=O)Nc1nc2ccc(C(F)(F)F)cn2c1-c1nccs1)C(F)(F)F` (stereo not drawn) [Compound 83, 4,4,4-trifluoro-3-methyl-N-(3-(thiazol-2-yl)-6-(trifluoromethyl)imidazo[1,2-a]pyridin-2-yl)butanamide], the EC50 fell in the range of 3 to 10 µM.

Staying with this experiment, now noted: FLIPR assay, SH-SY5Y native cell line; Table 2; read-out: SH-SY5Y EC50.
As for `CC(C)(CO)CC(=O)Nc1nc2ccc(F)cn2c1-c1ccc(OC(F)(F)F)cc1` [Compound 192, N-(6-fluoro-3-(4-(trifluoromethoxy)phenyl)imidazo[1,2-a]pyridin-2-yl)-4-hydroxy-3,3-dimethylbutanamide], the EC50 was 0.5 to 3 µM.

Regarding `CC(C)(C)CC(=O)Nc1nc2ncc(Cl)cn2c1-c1ccc(C(F)(F)F)cc1` [Compound 322, N-(6-chloro-3-(4-(trifluoromethyl)phenyl)imidazo[1,2-a]pyrimidin-2-yl)-3,3-dimethylbutanamide], the EC50 fell in the range of 3 to 10 µM.

As for `CC(C)(C)CC(=O)Nc1nc2cc(C(F)(F)F)ccn2c1-c1ccc(F)cc1` [Compound 113, N-(3-(4-fluorophenyl)-7-(trifluoromethyl)imidazo[1,2-a]pyridin-2-yl)-3,3-dimethylbutanamide], the EC50 lay in the range of 0.5 to 3 µM.

Regarding `CC(C)C(C)C(=O)Nc1nc2ccc(F)cn2c1-c1ccc(C(F)(F)F)cc1` (stereo not drawn) [Compound 184, N-(6-fluoro-3-(4-(trifluoromethyl)phenyl)imidazo[1,2-a]pyridin-2-yl)-2,3-dimethylbutanamide], the EC50 is 0.5 to 3 µM.

For `O=C(CC(F)(F)F)Nc1nc2ccc(F)cn2c1-c1cccc(Cl)c1` [Compound 284, N-(3-(3-chlorophenyl)-6-fluoroimidazo[1,2-a]pyridin-2-yl)-3,3,3-trifluoropropanamide], the EC50 lay in the range of 0.5 to 3 µM.

For “N-(6-fluoro-3-(3-(trifluoromethoxy)phenyl)imidazo yl)cycloheptanecarboxamide [Compound 293]”, the EC50 is < 0.5 µM.

Consider `O=C(Cc1ccc(F)cc1)Nc1nc2ncc(Cl)cn2c1-c1ccc(C(F)(F)F)cc1` [Compound 317, N-(6-chloro-3-(4-(trifluoromethyl)phenyl)imidazo[1,2-a]pyrimidin-2-yl)-2-(4-fluorophenyl)acetamide], for which the EC50 fell in the range of 0.5 to 3 µM.

Turning to `Cc1ccn2c(-c3ccc(F)cc3)c(NC(=O)Cc3ccccc3)nc2c1` [Compound 168, N-(3-(4-fluorophenyl)-7-methylimidazo[1,2-a]pyridin-2-yl)-2-phenylacetamide], the EC50 is < 0.5 µM.

Regarding `CC(CC(=O)Nc1nc2ccc(F)cn2c1-c1ccc(OC(F)(F)F)c(F)c1)C(F)(F)F` (stereo not drawn) [Compound 313, 4,4,4-trifluoro-N-(6-fluoro-3-(3-fluoro-4-(trifluoromethoxy)phenyl)imidazo[1,2-a]pyridin-2-yl)-3-methyl butanamide], the EC50 is < 0.5 µM.

As to `O=C(Cc1ccccc1)Nc1nc2ccc(F)cn2c1-c1cccc(Cl)c1` [Compound 155, N-(3-(3-chlorophenyl)-6-fluoroimidazo[1,2-a]pyridin-2-yl)-2-phenylacetamide], the EC50 is < 0.5 µM.

Consider `O=C(Cc1ccc(C(F)(F)F)cc1)Nc1nc2ccc(F)cn2c1-c1ccc(OC(F)(F)F)c(F)c1` [Compound 297, N-(6-fluoro-3-(3-fluoro-4-(trifluoromethoxy)phenyl)imidazo[1,2-a]pyridin-2-yl)-2-(4-(trifluoromethyl)phenyl)acetamide], for which the EC50 is < 0.5 µM.

As to `Cc1cc(-c2c(NC(=O)CC(C)(C)C)nc3ccc(F)cn23)ccc1F` [Compound 255, N-(6-fluoro-3-(4-fluoro-3-methylphenyl)imidazo[1,2-a]pyridin-2-yl)-3,3-dimethylbutanamide], the half-maximal effective concentration (EC50) was < 0.5 µM.

In the case of `CC(C)(C)OCC(=O)Nc1nc2ccc(F)cn2c1-c1ccc(OC(F)(F)F)cc1` [Compound 208, 2-tert-butoxy-N-(6-fluoro-3-(4-(trifluoromethoxy)phenyl)imidazo[1,2-a]pyridin-2-yl)acetamide], the EC50 lay in the range of 3 to 10 µM.

With `O=C(Cc1ccc(F)cc1F)Nc1nc2ccc(F)cn2c1-c1ccc(F)cc1` [Compound 136, 2-(2,4-difluorophenyl)-N-(6-fluoro-3-(4-fluorophenyl)imidazo[1,2-a]pyridin-2-yl)acetamide], the EC50 was 0.5 to 3 µM.

Turning to `O=C(COc1ccccc1)Nc1nc2ccc(F)cn2c1-c1ccc(OC(F)(F)F)cc1` [Compound 231, N-(6-fluoro-3-(4-(trifluoromethoxy)phenyl)imidazo[1,2-a]pyridin-2-yl)-2-phenoxyacetamide], the EC50 lay within 3 to 10 µM.

In the case of `COc1ccn2c(-c3ccc(C(F)(F)F)cc3)c(NC(=O)CC(F)(F)F)nc2c1` [Compound 307, 3,3,3-trifluoro-N-(7-methoxy-3-(4-(trifluoromethyl)phenyl)imidazo[1,2-a]pyridin-2-yl)propanamide], the EC50 was 3 to 10 µM.

For the compound `O=C(Nc1nc2ccc(F)cn2c1-c1ccc(OC(F)(F)F)cc1)C1CCCCCC1` [Compound 291, N-(6-fluoro-3-(4-(trifluoromethoxy)phenyl)imidazopyridin-2-yl)cycloheptanecarboxamide], the EC50 was < 0.5 µM.

Turning to `O=C(Cc1ccc(F)cc1)Nc1nc2ccc(F)cn2c1-c1cccc(OC(F)(F)F)c1` [Compound 183, N-(6-fluoro-3-(3-(trifluoromethoxy)phenyl)imidazo[1,2-a]pyridin-2-yl)-2-(4-fluorophenyl) acetamide], the EC50 was < 0.5 µM.

The same experiment, now with this note: FLIPR assay, SH-SY5Y native cell line; Table 4; read-out: SH-SY5Y EC50.
As for `Cc1cccc2nc(NC(=O)CC(C)C(F)(F)F)c(-c3cccc(C(F)(F)F)c3)n12` (stereo not drawn) [Compound 420, 4,4,4-trifluoro-3-methyl-N-(5-methyl-3-(3-(trifluoromethyl)phenyl)imidazo[1,2-a]pyridin-2-yl)butanamide], the EC50 lay in the range of 0.5 to 3 µM.

Staying with this experiment, now noted: SH-SY5Y native cell line, FLIPR assay (Table 3); read-out: SH-SY5Y EC50.
As to `CC(C)(C)CC(=O)Nc1nc2ccc(F)cn2c1-c1ccncc1` [Compound 351, N-(6-fluoro-3-(pyridin-4-yl)imidazo[1,2-a]pyridin-2-yl)-3,3-dimethylbutanamide], the EC50 fell in the range of 3 to 10 µM.

Regarding `O=C(Cc1ccc(F)cc1)Nc1nc2ccccn2c1-c1nccs1` [Compound 407, 2-(4-fluorophenyl)-N-(3-(thiazol-2-yl)imidazo[1,2-a]pyridin-2-yl)acetamide], the EC50 was 0.5 to 3 µM.

On to `CC(C)(C)CCC(=O)Nc1nc2ccc(F)cn2c1-c1nc2ccccc2s1` [Compound 372, N-(3-(benzo[d]thiazol-2-yl)-6-fluoroimidazo[1,2-a]pyridin-2-yl)-4,4-dimethylpentanamide], for which the EC50 lay within 0.5 to 3 µM.

Turning to `Cc1ccc2nc(NC(=O)Cc3ccc(F)cc3)c(-c3nccs3)n2n1` [Compound 390, 2-(4-fluorophenyl)-N-(6-methyl-3-(thiazol-2-yl)imidazo[1,2-b]pyridazin-2-yl)acetamide], the EC50 lay in the range of 3 to 10 µM.

For the compound `CC(C)C(C)C(=O)Nc1nc2ccc(F)cn2c1-c1ccc(F)cn1` (stereo not drawn) [Compound 368, N-(6-fluoro-3-(5-fluoropyridin-2-yl)imidazo[1,2-a]pyridin-2-yl)-2,3-dimethylbutanamide], the EC50 was 3 to 10 µM.

Consider `CC(C)(C)CC(=O)Nc1nc2ccccn2c1-c1cscn1` [Compound 414, 3,3-dimethyl-N-(3-(thiazol-4-yl)imidazo[1,2-a]pyridin-2-yl)butanamide], for which the EC50 is 3 to 10 µM.

Still in this experiment, the particulars now being: SH-SY5Y native cell line, FLIPR assay (Table 6); read-out: SH-SY5Y EC50.
With `CC(C)CCc1c(NC(=O)CC(C)(C)C(F)(F)F)nc2ccc(C(F)(F)F)cn12` [Compound 443, 4,4,4-trifluoro-N-(3-isopentyl-6-(trifluoromethyl)imidazo[1,2-a]pyridin-2-yl)-3,3-dimethylbutanamide], the EC50 is < 0.5 µM.

These data come from US9018208B2, “Heterocycles as potassium channel modulators” (Icagen Inc., priority 2007, dated 2015).
